Consider 47 molecules from patent US12064426B2, “Selective inhibitors of ROCK1 and ROCK2 protein kinases and uses thereof” (GENOSCO Inc., priority 2021, dated 2024).

The target of experiment [1] is T1, Recombinant ROCK1 (amino acids 1-477) (Homo sapiens, UniProt Q13464).
T1 construct: Recombinant ROCK1 (amino acids 1-477); by word order, ROCK1 from Carna Biosciences
The experiment is described as follows: ROCK inhibition assay, LANCE Ultra TR-FRET kinase assay (ROCK1). In kind it is biochemical. Particulars: 1 μM ATP, 50 nM ULight-CREBtide substrate. The protocol: (§1) Kinase IC50 was determined through an in vitro assay based on LANCE Ultra TR-FRET (Time-Resolved Fluorescence Resonance Energy Transfer) homogeneous technologies method (Perkin Elmer). Recombinant ROCK1 (amino acids 1-477) and ROCK2 (amino acids 5-554) proteins were purchased from Carna Biosciences and SignalChem. Compound activities were measured by Envision and IC50s were calculated. The assays were performed in white LUMITRAC™ 200 96 well half-area microplates from Greiner Bio-One. The kinase reaction buffer consisted of 50 mM HEPES pH 7.5, 1 mM EGTA, 10 mM MgCl2, 2 mM DTT and 0.01% Tween-20. Kinases were incubated with 50 nM (ULight-CREBtide) substrate in the presence of 1 (ROCK1) or 4 (ROCK2) μM ATP. The kinase reaction was carried out for 1 hour before addition of a stopping buffer to a final of 10 mM EDTA and 0.6 nM of LANCE Ultra Europium anti-phospho-CREB (Ser133) antibody (PerkinElmer TRF0200) in LANCE detection buffer. All assay incubations were performed at room temperature, and the microplates were sealed with polyester film during that time. The reaction was incubated for 1 hour, and the signal was read in Envision in TR-FRET mode (excitation at 320 nm and emission at 615/665 nm).
(§2) As used herein, a way to describe potency of inhibitory activity (nM) is a value of inhibitory activity at 50% (IC50).
In general terms: In TR-FRET formats the signal depends on donor and acceptor labels being close together.

Experiment [2] has as its target T2, Recombinant ROCK2 (amino acids 5-554) (Homo sapiens, UniProt O75116).
T2 construct: ROCK2 (amino acids 5-554); by word order, ROCK2 from SignalChem
The experiment is described as follows: ROCK inhibition assay, LANCE Ultra TR-FRET kinase assay (ROCK2). The format is biochemical. As to conditions: 4 μM ATP, 50 nM ULight-CREBtide substrate. On the procedure:
as §1, §2

A value given as a limit tells only on which side of the number the result lay.

T1 sequence (Q13464 1-477): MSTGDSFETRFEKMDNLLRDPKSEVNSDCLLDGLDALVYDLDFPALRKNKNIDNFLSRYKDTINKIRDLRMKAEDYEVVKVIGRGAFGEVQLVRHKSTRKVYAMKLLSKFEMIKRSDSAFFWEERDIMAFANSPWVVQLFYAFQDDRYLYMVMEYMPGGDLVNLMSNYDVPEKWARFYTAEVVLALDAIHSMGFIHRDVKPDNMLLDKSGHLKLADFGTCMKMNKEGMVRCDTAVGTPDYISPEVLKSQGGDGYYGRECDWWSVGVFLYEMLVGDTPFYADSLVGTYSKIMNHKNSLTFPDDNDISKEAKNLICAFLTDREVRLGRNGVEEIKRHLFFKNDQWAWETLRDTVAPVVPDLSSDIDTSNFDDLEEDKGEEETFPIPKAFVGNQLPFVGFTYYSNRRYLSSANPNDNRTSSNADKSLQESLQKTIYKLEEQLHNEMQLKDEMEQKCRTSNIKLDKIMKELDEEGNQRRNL
T2 sequence (O75116 5-554): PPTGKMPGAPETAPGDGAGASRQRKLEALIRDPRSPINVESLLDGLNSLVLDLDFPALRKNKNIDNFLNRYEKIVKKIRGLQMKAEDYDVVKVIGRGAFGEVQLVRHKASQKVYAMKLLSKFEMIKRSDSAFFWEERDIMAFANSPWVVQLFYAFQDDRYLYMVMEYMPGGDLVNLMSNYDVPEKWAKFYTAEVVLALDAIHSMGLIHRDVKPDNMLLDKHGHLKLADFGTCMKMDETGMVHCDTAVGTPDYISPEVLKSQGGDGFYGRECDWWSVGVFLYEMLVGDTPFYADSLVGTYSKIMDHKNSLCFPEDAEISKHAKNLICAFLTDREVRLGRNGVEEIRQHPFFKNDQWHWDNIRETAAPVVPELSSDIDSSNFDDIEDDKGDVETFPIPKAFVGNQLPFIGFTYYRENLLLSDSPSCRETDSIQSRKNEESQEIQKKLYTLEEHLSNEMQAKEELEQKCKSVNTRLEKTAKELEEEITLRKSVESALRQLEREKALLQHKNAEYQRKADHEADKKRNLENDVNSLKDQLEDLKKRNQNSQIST

The term IC50 denotes the point on the concentration scale where inhibition reaches its midpoint. As to `CO[C@H]1CC[C@@H](NC(=O)c2cc(F)cc(Cn3ccc4cc(-c5conc5C)ccc4c3=O)c2)CC1` [Compound 142], the IC50 in experiment [1] is more than 501 nM; in experiment [2] it was 100 to 500 nM. For `COc1cccc(C(CO)n2cnc3cc(-c4cn[nH]c4Cl)ccc3c2=O)c1` (stereo not drawn) [Compound 491] the same measures were 11 to 100 nM and 10 to 100 nM. Take `Cn1nccc1-c1ccc2c(=O)n(Cc3cccc(C(=O)NCCO)c3)cnc2c1` [Compound 432]: the IC50 in experiment [1] lay within 101 to 500 nM; in experiment [2], 10 to 100 nM. For `CNC(=O)c1cccc(C(C)n2cc(CCO)c3cc(-c4cn[nH]c4F)ccc3c2=O)c1` (stereo not drawn) [Compound 554], in that order: 11 to 100 nM and less than 10 nM.

Turning to `Cc1nocc1-c1ccc2c(=O)n(Cc3cc(F)cc(C(=O)Nc4ccc5c(c4)CCN(C)C5)c3)ccc2c1` [Compound 163], the IC50 in experiment [1] and in experiment [2] was less than 10 nM throughout.

Consider `Nc1cc(-c2ccc3c(=O)n(Cc4cccc(C(=O)N[C@H]5CC[C@H](O)CC5)c4)ccc3c2)ccn1` [Compound 193], for which the IC50 in experiment [1] lay in the range of 101 to 500 nM; in experiment [2], 10 to 100 nM.

On to `CS(=O)(=O)Nc1ccc(CNC(=O)c2cccc(Cn3cnc4cc(-c5cn[nH]c5C(F)(F)F)ccc4c3=O)c2)cc1` [Compound 373], for which the IC50 in experiment [1] is 11 to 100 nM; in experiment [2] it was less than 10 nM. Regarding `CN1CCC(CNC(=O)c2cc(F)cc(Cn3ccc4cc(-c5c[nH]nc5C(F)(F)F)ncc4c3=O)c2)CC1` [Compound 257], the IC50 in experiment [1] and in experiment [2] was less than 10 nM in each case.

Take `O=C(NCC1CCN(C2CC2)CC1)c1cccc(Cn2ccc3cc(N4CCOCC4)ccc3c2=O)c1` [Compound 225]: the IC50 in experiment [1] lay in the range of 101 to 500 nM; in experiment [2], 10 to 100 nM. Consider `CC(=O)Nc1cc(F)cc(Cn2ccc3cc(-c4ccoc4C)ccc3c2=O)c1` [Compound 333], for which the IC50 in experiment [1] was more than 501 nM; in experiment [2] it was 100 to 500 nM. For `Cn1nccc1-c1ccc2c(=O)n(Cc3cccc(C(=O)Nc4ccc5c(c4)CN(C4CC4)CC5)c3)ccc2c1` [Compound 126] the same measures were 11 to 100 nM and less than 10 nM. In the case of `O=C(NCCc1cccc(F)n1)c1cccc(Cn2ccc3cc(-c4c[nH]nc4C(F)(F)F)ccc3c2=O)c1` [Compound 54], the IC50 was 11 to 100 nM in experiment [1] and less than 10 nM in experiment [2].

Consider `CNC(=O)c1cc(Cn2cnc3cc(-c4cn[nH]c4C(F)(F)F)ccc3c2=O)ccc1F` [Compound 389], for which the IC50 in experiment [1] lay in the range of 11 to 100 nM; in experiment [2], 10 to 100 nM. For `COc1cccc(Cn2cnc3cc(-c4ccncc4)ccc3c2=O)c1` [Compound 363], in that order: 11 to 100 nM and 10 to 100 nM. In the case of `[2H]C([2H])([2H])NC(=O)c1cc(F)cc(Cn2cnc3cc(-c4conc4C)ccc3c2=O)c1` [Compound 423], the IC50 in experiment [1] is 11 to 100 nM; in experiment [2], less than 10 nM.

On to `C[C@H](c1cccc(C(=O)NCC2CCN(C)CC2)c1)n1cnc2cc(-c3cn[nH]c3C(F)F)ccc2c1=O` [Compound 461], for which the IC50 in experiment [1] and in experiment [2] was less than 10 nM throughout. Take `CNC(=O)c1cccc(C(C)n2ccc3cc(-c4cn[nH]c4C(F)F)ccc3c2=O)c1` (stereo not drawn) [Compound 287]: the values for the IC50 in experiment [1] and in experiment [2] were 11 to 100 nM and less than 10 nM, respectively. Consider `Nc1cc(-c2ccc3c(=O)n(Cc4cccc(C(=O)Nc5ncc[nH]5)c4)ccc3c2)ccn1` [Compound 199], for which the IC50 in experiment [1] is more than 501 nM; in experiment [2] it was 100 to 500 nM. For `CN1CCC(CNC(=O)c2cccc(Cn3ccc4cc(-c5c[nH]nc5C(F)(F)F)ccc4c3=O)c2)CC1` [Compound 51] the same measures were less than 10 nM and less than 10 nM. For `COc1cccc(CN2CCc3cc(-c4cn[nH]c4)ccc3C2=O)c1` [Compound 1, 2-(3-methoxybenzyl)-6-(1H-pyrazol-4-yl)-3,4-dihydroisoquinolin-1(2H)-one] the same measures were more than 501 nM and 100 to 500 nM. Turning to `O=C(N[C@H]1CC[C@H](O)CC1)c1cc(F)cc(Cn2ccc3cc(-c4c[nH]nc4C(F)(F)F)ncc3c2=O)c1` [Compound 260], the results for the IC50 in experiment [1] and in experiment [2] were 11 to 100 nM and less than 10 nM, respectively. For `O=C(NC1COC1)c1cc(F)cc(Cn2ccc3cc(N4CCOCC4)ccc3c2=O)c1` [Compound 208] the same measures were more than 501 nM and 100 to 500 nM. Regarding `O=C(NC1CC1)c1cccc(Cn2ccc3cc(-c4c[nH]nc4C(F)(F)F)ccc3c2=O)c1` [Compound 50], the results for the IC50 in experiment [1] and in experiment [2] were 101 to 500 nM and 10 to 100 nM, respectively.

For the molecule `CNC(=O)c1cc(F)cc(C(C)n2ccc3cc(-c4cn[nH]c4C(F)(F)F)ccc3c2=O)c1` (stereo not drawn) [Compound 283], the IC50 in experiment [1] was 11 to 100 nM; in experiment [2], less than 10 nM. For `[2H]C([2H])([2H])NC(=O)c1cccc([C@@H](C)n2cnc3cc(-c4cn[nH]c4C(F)(F)F)ccc3c2=O)c1` [Compound 443], in that order: 11 to 100 nM and less than 10 nM. For `O=C(NCc1ccc(F)nc1)c1cccc(Cn2ccc3cc(-c4c[nH]nc4C(F)(F)F)ccc3c2=O)c1` [Compound 44] the same measures were 11 to 100 nM and less than 10 nM. For `Nc1cc(-c2ccc3c(=O)n(Cc4cccc(C(=O)NCc5ccccc5)c4)ccc3c2)ccn1` [Compound 181] the same measures were 101 to 500 nM and 10 to 100 nM. Take `CNC(=O)c1cccc(Cn2ccc3cc(-c4cn[nH]c4C(F)F)ncc3c2=O)c1` [Compound 237]: the figures for the IC50 in experiment [1] and in experiment [2] were 11 to 100 nM and less than 10 nM, respectively. `CNC(=O)c1cccc(C(C)n2cc(CCO)c3cc(-c4cn[nH]c4C(F)(F)F)ccc3c2=O)c1` (stereo not drawn) [Compound 549]: the IC50 was 11 to 100 nM in experiment [1] and less than 10 nM in experiment [2].

On to `Cn1ccc(NC(=O)c2cc(F)cc(Cn3ccc4cc(-c5ccnc(N)c5)ccc4c3=O)c2)n1` [Compound 201], for which the IC50 in experiment [1] was 11 to 100 nM; in experiment [2] it was less than 10 nM.

`O=C(N[C@H]1C[C@H](O)C1)c1cc(F)cc(Cn2ccc3cc(N4CCOCC4)ccc3c2=O)c1` [Compound 210]: the values for the IC50 in experiment [1] and in experiment [2] were more than 501 nM and 100 to 500 nM, respectively. For `CNC(=O)c1cccc(Cn2ccc3cc(N4CCO[C@@H](C)C4)ccc3c2=O)c1` [Compound 331], in that order: more than 501 nM and 100 to 500 nM. In the case of `CNC(=O)c1cccc(Cn2ccc3cc(-c4c[nH]nc4Cl)ncc3c2=O)c1` [Compound 235], the IC50 in experiment [1] is 11 to 100 nM; in experiment [2] it was less than 10 nM. For `CNC(=O)c1cc(F)cc([C@@H](C)n2cnc3cc(-c4cn[nH]c4C(F)F)ccc3c2=O)c1` [Compound 463], in that order: 11 to 100 nM and less than 10 nM.

Take `COc1cccc(C(CN)n2cnc3cc(-c4cn[nH]c4C)ccc3c2=O)c1` (stereo not drawn) [Compound 498]: the IC50 in experiment [1] and in experiment [2] was less than 10 nM throughout. On to `COc1cccc(C(CN)n2cnc3cc(-c4cn[nH]c4C(F)(F)F)ccc3c2=O)c1` (stereo not drawn) [Compound 499], for which the IC50 in experiment [1] and in experiment [2] was less than 10 nM throughout. Turning to `CNC(=O)c1cccc(C(C)n2ccc3cc(-c4cn[nH]c4C(F)(F)F)ccc3c2=O)c1` (stereo not drawn) [Compound 279], the IC50 in experiment [1] was 11 to 100 nM; in experiment [2], less than 10 nM.

Turning to `CNC(=O)c1cccc(Cn2ccc3cc(-c4ccoc4)ccc3c2=O)c1` [Compound 302], the IC50 was more than 501 nM in experiment [1] and more than 500 nM in experiment [2]. For `CNC(=O)c1cccc(Cn2ccc3cc(-c4cnn(C)c4)ccc3c2=O)c1` [Compound 299] the same measures were more than 501 nM and more than 500 nM.

Regarding `CNC(=O)c1cccc(Cn2cc(C(C)O)c3cc(-c4c[nH]nc4N)ccc3c2=O)c1` (stereo not drawn) [Compound 544], the figures for the IC50 in experiment [1] and in experiment [2] were 11 to 100 nM and less than 10 nM, respectively. For the molecule `CNC(=O)c1cccc(Cn2cc(C(C)O)c3cc(-c4c[nH]nc4C(F)F)ccc3c2=O)c1` (stereo not drawn) [Compound 535], the IC50 in experiment [1] and in experiment [2] was less than 10 nM in each case.

On to `CNC(=O)c1cccc(Cn2cc(C(C)O)c3cc(-c4ccnn4C)ccc3c2=O)c1` (stereo not drawn) [Compound 540], for which the figures for the IC50 in experiment [1] and in experiment [2] were 11 to 100 nM and less than 10 nM, respectively. Turning to `Cc1nocc1-c1ccc2c(=O)n(Cc3cccc(C(=O)Nc4nc5c(s4)CCN(C)C5)c3)ccc2c1` [Compound 94], the IC50 in experiment [1] and in experiment [2] was less than 10 nM in each case. Turning to `COc1cccc(Cn2ccc3cc(-c4ccnn4C)ccc3c2=O)c1` [Compound 11], the IC50 in experiment [1] is 11 to 100 nM; in experiment [2], less than 10 nM. For `CNC(=O)c1cccc([C@@H](C)n2cnc3cc(-c4cn[nH]c4C)ccc3c2=O)c1` [Compound 441], in that order: 11 to 100 nM and less than 10 nM. For `CNC(=O)c1cccc(Cn2cnc3cc(-c4cn[nH]c4)ccc3c2=O)c1` [Compound 366, N-methyl-3-((4-oxo-7-(1H-pyrazol-4-yl)quinazolin-3(4H)-yl)methyl)benzamide] the same measures were 11 to 100 nM and less than 10 nM. In the case of `C[C@H](c1cccc(C(=O)Nc2ccon2)c1)n1cnc2cc(-c3cn[nH]c3C(F)(F)F)ccc2c1=O` [Compound 448], the half-maximal inhibitory concentration (IC50) in experiment [1] is 101 to 500 nM.
